Values joined by “and” are separate entries in the source; they are usually repeats but may differ in a detail not shown here. Identical values can stand only once.
Tested on: 786-0 complex spheroid viability
Experiment: Anticancer human tumor 786-0 cell line growth inhibition;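 note: spheroids exposed to agents for seven days before readout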
Settings: for viability, T/C: stronger effect = lower value; active = viability on the fitted dose curve at most 10% of control; inactive = the rest
Outline: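 Multicellular complex spheroids of tumor cells with human endothelial cells (HUVEC) and mesenchymal stem cells; the LSD1 inhibitor iadademstat was combined with standard-of-care or investigational agents. Top concentration at or near clinical Cmax, half-log dilutions; final DMSO ≤0.25%.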

[1] = curve of first compound, second compound 0.1 µM
[2] = curve of first compound, second compound 0.316 µM
[3] = curve of first compound, second compound 1 µM
[4] = curve of first compound, second compound 3.16 µM
[5] = curve of first compound, second compound 10 µM
[6] = second compound 0.1 µM, first compound 0.000316 µM
[7] = second compound 0.1 µM, first compound 0.001 µM
[8] = second compound 0.1 µM, first compound 0.00316 µM
[9] = second compound 0.1 µM, first compound 0.01 µM
[10] = second compound 0.1 µM, first compound 0.0316 µM
[11] = second compound 0.1 µM, first compound 0.1 µM
[12] = second compound 0.316 µM, first compound 0.000316 µM
[13] = second compound 0.316 µM, first compound 0.001 µM
[14] = second compound 0.316 µM, first compound 0.00316 µM
[15] = second compound 0.316 µM, first compound 0.01 µM
[16] = second compound 0.316 µM, first compound 0.0316 µM
[17] = second compound 0.316 µM, first compound 0.1 µM
[18] = second compound 1 µM, first compound 0.000316 µM
[19] = second compound 1 µM, first compound 0.001 µM
[20] = second compound 1 µM, first compound 0.00316 µM
[21] = second compound 1 µM, first compound 0.01 µM
[22] = second compound 1 µM, first compound 0.0316 µM
[23] = second compound 1 µM, first compound 0.1 µM
[24] = second compound 3.16 µM, first compound 0.000316 µM
[25] = second compound 3.16 µM, first compound 0.001 µM
[26] = second compound 3.16 µM, first compound 0.00316 µM
[27] = second compound 3.16 µM, first compound 0.01 µM
[28] = second compound 3.16 µM, first compound 0.0316 µM
[29] = second compound 3.16 µM, first compound 0.1 µM
[30] = second compound 10 µM, first compound 0.000316 µM
[31] = second compound 10 µM, first compound 0.001 µM
[32] = second compound 10 µM, first compound 0.00316 µM
[33] = second compound 10 µM, first compound 0.01 µM
[34] = second compound 10 µM, first compound 0.0316 µM
[35] = second compound 10 µM, first compound 0.1 µM

CC(C)CC(NC(=O)CNC(=O)c1cc(Cl)ccc1Cl)B1OC(=O)CC(CC(=O)O)(C(=O)O)O1 (centres undefined) + NC1CCC(NC2CC2c2ccccc2)CC1
12.9 nM: IC50 [1]
10.7 nM: IC50 [2]
9.62 nM: IC50 [4]
inactive: viability, T/C [6] 127% | viability, T/C [7] 123% | viability, T/C [8] 110% | viability, T/C [9] 52.4% | viability, T/C [10] 32.4% | viability, T/C [11] 9.25% | viability, T/C [12] 129% | viability, T/C [13] 130% | viability, T/C [14] 121% | viability, T/C [15] 51.6% | viability, T/C [16] 30.7% | viability, T/C [17] 8.11% | viability, T/C [18] 113% | viability, T/C [19] 128% | viability, T/C [20] 112% | viability, T/C [21] 52.3% | viability, T/C [22] 34.1% | viability, T/C [23] 10% | viability, T/C [24] 109% | viability, T/C [25] 112% | viability, T/C [26] 107% | viability, T/C [27] 46.7% | viability, T/C [28] 29.5% | viability, T/C [29] 9.53% | viability, T/C [30] 96.8% | viability, T/C [31] 91.4% | viability, T/C [32] 82.1% | viability, T/C [33] 50.1% | viability, T/C [34] 19.7%
12 nM: IC50 [3]
10.2 nM: IC50 [5]
active: viability, T/C [35] 7.29%

Cn1ncnc1C1c2n[nH]c(=O)c3cc(F)cc(c23)NC1c1ccc(F)cc1 (centres undefined)
> 100 nM: IC50 (curve of compound)
inactive: viability, T/C (compound 0.000316 µM) 102% and 101% | viability, T/C (compound 0.001 µM) 108% | viability, T/C (compound 0.00316 µM) 98.2% and 97.5% | viability, T/C (compound 0.01 µM) 98.3% and 97.5% | viability, T/C (compound 0.0316 µM) 100% and 92.3% | viability, T/C (compound 0.1 µM) 97.7% and 89.8%

COc1cc(Nc2ncc3c(n2)-c2ccc(Cl)cc2C(c2c(F)cccc2OC)=NC3)ccc1C(=O)O + NC1CC1c1ccc(-c2cccc(O)c2)cc1
inactive: viability, T/C [8] 96.3% | viability, T/C [9] 86.8% | viability, T/C [10] 69% | viability, T/C [11] 65% | viability, T/C (second compound 0.1 µM, first compound 0.316 µM) 55.5% | viability, T/C (second compound 0.1 µM, first compound 1 µM) 45.4% | viability, T/C [14] 105% | viability, T/C [15] 94.5% | viability, T/C [16] 77% | viability, T/C [17] 67.1% | viability, T/C (second compound 0.316 µM, first compound 0.316 µM) 55.4% | viability, T/C (second compound 0.316 µM, first compound 1 µM) 46.4% | viability, T/C [20] 93.3% | viability, T/C [21] 83.6% | viability, T/C [22] 70.3% | viability, T/C [23] 66.9% | viability, T/C (second compound 1 µM, first compound 0.316 µM) 52% | viability, T/C (second compound 1 µM, first compound 1 µM) 42.2% | viability, T/C [26] 89.7% | viability, T/C [27] 86.1% | viability, T/C [28] 68.5% | viability, T/C [29] 66.1% | viability, T/C (second compound 3.16 µM, first compound 0.316 µM) 56.9% | viability, T/C (second compound 3.16 µM, first compound 1 µM) 44.7% | viability, T/C [32] 84.6% | viability, T/C [33] 77.7% | viability, T/C [34] 67.9% | viability, T/C [35] 72.2% | viability, T/C (second compound 10 µM, first compound 0.316 µM) 56.7% | viability, T/C (second compound 10 µM, first compound 1 µM) 49.4%
431 nM: IC50 [3]
955 nM: IC50 [5]
638 nM: IC50 [2]
588 nM: IC50 [4]
584 nM: IC50 [1]

CC(C)CC(NC(=O)CNC(=O)c1cc(Cl)ccc1Cl)B1OC(=O)CC(CC(=O)O)(C(=O)O)O1 (centres undefined)
11.5 nM and 17.9 nM: IC50 (curve of compound)
inactive: viability, T/C (compound 0.000316 µM) 108% and 107% | viability, T/C (compound 0.001 µM) 106% and 104% | viability, T/C (compound 0.00316 µM) 102% and 106% | viability, T/C (compound 0.01 µM) 49.1% and 64.2% | viability, T/C (compound 0.0316 µM) 30.4% and 36.4% | viability, T/C (compound 0.1 µM) 7.53% and 16.1%

CC[C@@]1(O)C(=O)OCc2c1cc1n(c2=O)Cc2cc3c(CN(C)C)c(O)ccc3nc2-1 + NC1CC1c1ccc(-c2cccc(O)c2)cc1
4.87 nM: IC50 [2]
active: viability, T/C [10] 6.23% | viability, T/C [11] 2.94% | viability, T/C [16] 4.65% | viability, T/C [17] 3.46% | viability, T/C [22] 4.54% | viability, T/C [23] 2.99% | viability, T/C [28] 5.39% | viability, T/C [29] 2.22% | viability, T/C [33] 8.93% | viability, T/C [34] 3.25% | viability, T/C [35] 2.9%
5.02 nM: IC50 [1]
4.02 nM: IC50 [5]
inactive: viability, T/C [6] 112% | viability, T/C [7] 109% | viability, T/C [8] 74.6% | viability, T/C [9] 13.2% | viability, T/C [12] 109% | viability, T/C [13] 105% | viability, T/C [14] 73.6% | viability, T/C [15] 10.7% | viability, T/C [18] 119% | viability, T/C [19] 109% | viability, T/C [20] 73.4% | viability, T/C [21] 10.8% | viability, T/C [24] 107% | viability, T/C [25] 107% | viability, T/C [26] 70% | viability, T/C [27] 10.8% | viability, T/C [30] 104% | viability, T/C [31] 109% | viability, T/C [32] 61%
4.86 nM: IC50 [3]
4.67 nM: IC50 [4]

CC(C)CC(NC(=O)C(Cc1ccccc1)NC(=O)c1cnccn1)B(O)O (centres undefined) + NC1CC1c1ccc(-c2cccc(O)c2)cc1
3.41 nM: IC50 [3]
3.52 nM: IC50 [2]
2.35 nM: IC50 [5]
inactive: viability, T/C [6] 114% | viability, T/C [7] 110% | viability, T/C [8] 55.5% | viability, T/C [12] 114% | viability, T/C [13] 111% | viability, T/C [14] 53.5% | viability, T/C [18] 114% | viability, T/C [19] 109% | viability, T/C [20] 51.8% | viability, T/C [24] 105% | viability, T/C [25] 110% | viability, T/C [26] 50.4% | viability, T/C [30] 102% | viability, T/C [31] 99.6% | viability, T/C [32] 32.9%
3.23 nM: IC50 [4]
active: viability, T/C [9] 11.2% | viability, T/C [10] 1.11% | viability, T/C [11] 0.47% | viability, T/C [15] 9.41% | viability, T/C [16] 1.04% | viability, T/C [17] 0.33% | viability, T/C [21] 10.7% | viability, T/C [22] 1.17% | viability, T/C [23] 0.5% | viability, T/C [27] 9.96% | viability, T/C [28] 1.23% | viability, T/C [29] 0.53% | viability, T/C [33] 6.5% | viability, T/C [34] 0.86% | viability, T/C [35] 0.34%
3.71 nM: IC50 [1]

— PubChem BioAssay AID1918944 (Molecular Pharmacology Branch, DTP, NCI, 2023)
